Source: US20250019370A1, “L-LYSINE SALT OF 4-CHLORO-5-[4-(2,6-DICHLOROPHENYL)SULFONYLPIPERAZIN-1-YL]-1-BENZOFURAN-2-CARBOXYLIC ACID AND VARIOUS FORMS THEREOF” (ENYO PHARMA, priority 2023, published 2025)

Experiments:
[1] = Polymorph screening (solids analysed by XRPD); assay type: physicochemical; conditions: form I as starting material
Procedure: A polymorph screening was performed on EYP001 L-lysine salt crystalline form I (form I as starting material unless otherwise specified).
A number of unique materials with different patterns were produced, including crystalline forms I-IV and an amorphous material. All solids from the screening experiments were analysed by XRPD analysis and the resulting patterns compared to that of the reference. The observed solids and their ways of obtention are described in Table 16.

[2] = Solubility kinetics in pH 4.5 acetate buffer; assay type: physicochemical; conditions: for Soluble fraction: 37 ° C., listed as EYP001 L-Lysine salt (Form I)
Procedure: The solubility kinetics of the salt forms as well as the native EYP001 free acid form were determined in FaSSIF and FeSSIF media, and in a pH 4.5 acetate buffer as detailed below:
The samples were prepared by adding an excess of each tested bulk (salt or native EYP001) to a given volume of test medium. The suspension was stirred by orbital stirring over 1 hour (in both pH 4.5 acetate buffer and FeSSIF medium) or 24 hours (inFaSSIF medium) at 37° C., protected from light.
In pH 4.5 acetate buffer, the soluble concentration was assessed after 0.5 hour and 1 hour of stirring.
At each time point, the “supernatant” was isolated and diluted in a solvent mixture allowing its injection into the chromatographic system. The concentration in solution in the test medium was determined by HPLC with external standardization.

[3] = Pharmacokinetic study Experiment #2, oral administration in rats; assay type: in vivo, rat; conditions: 50 mg EqEYP001/Kg
Procedure: In a second study (Experiment #2), EYP001 and EYP001 L-lysine salt Form I in aqueous formulations (0.5% CMC, 0.25% Tween 80, water) were orally administrated at a dose of 50 mg EqEYP001/Kg in 8 male rats for each compound. Blood samples were taken at 0.25 h, 0.5 h, 1 h, 2 h, 4 h, 6 h, 8 h, 12 h, and 24 h after oral administration.

[4] = Entry 1: no solvent, 23% RH stress
[5] = Entry 2: no solvent, 40° C./75% RH stress
[6] = Entry 3: no solvent, 59% RH stress
[7] = Entry 7: no solvent, melt quench
[8] = Entry 8: no solvent, compression
[9] = Entry 13: DMSO, slurry (20° C.)
[10] = Entry 14: EtOAc, slurry (5° C.)
[11] = Entry 15: water, slurry (5° C.)
[12] = Entry 16: THF, flash evaporation
[13] = Entry 17: THF, flash evaporation
[14] = Entry 18: acetone, flash evaporation
[15] = Entry 19: DMSO, flash evaporation
[16] = Entry 20: EtOAc, flash evaporation
[17] = Entry 21: IPA, flash evaporation
[18] = Entry 22: water, flash evaporation
[19] = Entry 23: MeOH, flash evaporation
[20] = Entry 24: EtOH, flash evaporation
[21] = Entry 25: heptane, flash evaporation
[22] = Entry 26: EtOH, flash evaporation
[23] = Entry 27: THF/water (82:18% v/v), flash evaporation
[24] = Entry 29: acetone, slurry (5° C.)
[25] = Entry 30: DMSO, slurry (20° C.)
[26] = Entry 31: EtOAc, slurry (5° C.)
[27] = Entry 33: water, slurry (5° C.)
[28] = Entry 36: heptane, slurry (5° C.)
[29] = Entry 37: THF/water (82:18% v/v), slurry (5° C.)
[30] = Entry 39: acetone, slurry (60° C.)
[31] = Entry 40: DMSO, slurry (60° C.)
[32] = Entry 41: EtOAc, slurry (60° C.)
[33] = Entry 43: water, slurry (60° C.)
[34] = Entry 44: MeOH, slurry (60° C.)
[35] = Entry 45: EtOH, slurry (60° C.)
[36] = Entry 46: heptane, slurry (60° C.)
[37] = Entry 47: EtOH /water (96:4% v/v), slurry (60° C.)
[38] = Entry 49: acetone, vapour stress
[39] = Entry 56: heptane, vapour stress
[40] = Entry 58: THF/water (82:18% v/v), anti-solvent THF, vapour diffusion
[41] = Entry 59: THF/water (82:18% v/v), anti-solvent IPA, vapour diffusion
[42] = Entry 60: THF/water (82:18% v/v), anti-solvent EtOAc, vapour diffusion
[43] = Entry 61: acetone/water (50:50% v/v), slow cool
[44] = Entry 62: DMSO/water (80:20% v/v), slow cool
[45] = Entry 64: IPA/water (80:20% v/v), slow cool
[46] = Entry 65: MEOH/water (84:16% v/v), slow cool
[47] = Entry 66: THF/water (82:18% v/v), slow cool
[48] = Entry 67: THF/water (82:18% v/v), crash precipitation
[49] = Entry 69: DMSO, anti-solvent EtOAc, crash precipitation
[50] = Entry 70: THF/water (82:18% v/v), temperature cycle
[51] = Entry 71: DMSO/water (80:20% v/v), temperature cycle
[52] = Entry 72: MeOH/water (84:16% v/v), temperature cycle
[53] = male rats, versus EYP001 free acid

NCCCC[C@H](N)C(=O)O.O=C(O)c1cc2c(Cl)c(N3CCN(S(=O)(=O)c4c(Cl)cccc4Cl)CC3)ccc2o1 [EYP001 L-lysine salt Form I, L-lysine salt of 4-chloro-5-[4-(2,6-dichlorophenyl)sulfonylpiperazin-1-yl]-1-benzofuran-2-carboxylic acid]
Results [1, 4]: solid | XRPD [1, 4]: Form I | Results [1, 5]: solid | XRPD [1, 5]: Form I | Results [1, 6]: solid | XRPD [1, 6]: Form I | Results [1, 7]: solid | XRPD [1, 7]: Amorphous | Results [1, 8]: solid | XRPD [1, 8]: Form I | Results ([1]; Entry 10: no solvent, milling): solid | XRPD ([1]; Entry 10: no solvent, milling): Amorphous | Results ([1]; Entry 12: THF, slurry (50° C.)): solid | XRPD ([1]; Entry 12: THF, slurry (50° C.)): Amorphous | Results [1, 9]: solid | XRPD [1, 9]: Form I | Results [1, 10]: solid | XRPD [1, 10]: Form I | Results [1, 11]: solid | XRPD [1, 11]: Form III | Results [1, 12]: no solid | XRPD [1, 12]: Amorphous | Results [1, 13]: solid | XRPD [1, 13]: Form II | Results [1, 14]: solid | XRPD [1, 14]: Amorphous | Results [1, 15]: solid | XRPD [1, 15]: Form I | Results [1, 16]: solid | XRPD [1, 16]: Amorphous | Results [1, 17]: solid | XRPD [1, 17]: Amorphous | Results [1, 18]: solid | XRPD [1, 18]: Form I | Results [1, 19]: solid | XRPD [1, 19]: Form I | Results [1, 20]: solid | XRPD [1, 20]: Form I | Results [1, 21]: solid | XRPD [1, 21]: Form II | Results [1, 22]: solid | XRPD [1, 22]: Form I | Results [1, 23]: solid | XRPD [1, 23]: Form I | Results ([1]; Entry 28: THF, slurry (5° C.)): solid | XRPD ([1]; Entry 28: THF, slurry (5° C.)): Form I | Results [1, 24]: solid | XRPD [1, 24]: Form I | Results [1, 25]: solid | XRPD [1, 25]: Amorphous | Results [1, 26]: solid | XRPD [1, 26]: Form I | Results ([1]; Entry 32: IPA, slurry (5° C.)): solid | XRPD ([1]; Entry 32: IPA, slurry (5° C.)): Form I | Results [1, 27]: solid | XRPD [1, 27]: Form III | Results ([1]; Entry 34: MeOH, slurry (5° C.)): solid | XRPD ([1]; Entry 34: MeOH, slurry (5° C.)): Form IV | Results ([1]; Entry 35: EtOH, slurry (5° C.)): solid | XRPD ([1]; Entry 35: EtOH, slurry (5° C.)): Form I | Results [1, 28]: solid | XRPD [1, 28]: Amorphous | Results [1, 29]: solid | XRPD [1, 29]: Form I | Results ([1]; Entry 38: THF, slurry (60° C.)): solid | XRPD ([1]; Entry 38: THF, slurry (60° C.)): Form I | Results [1, 30]: solid | XRPD [1, 30]: Amorphous | Results [1, 31]: solid | XRPD [1, 31]: Form I | Results [1, 32]: solid | XRPD [1, 32]: Form I | Results ([1]; Entry 42: IPA, slurry (60° C.)): solid | XRPD ([1]; Entry 42: IPA, slurry (60° C.)): Form I | Results [1, 33]: solid | XRPD [1, 33]: Form III | Results [1, 34]: solid | XRPD [1, 34]: Form I | Results [1, 35]: solid | XRPD [1, 35]: Form I | Results [1, 36]: solid | XRPD [1, 36]: Amorphous | Results [1, 37]: solid | XRPD [1, 37]: Form I | Results ([1]; Entry 48: THF, vapour stress): solid | XRPD ([1]; Entry 48: THF, vapour stress): Amorphous | Results [1, 38]: solid | XRPD [1, 38]: Amorphous | Results ([1]; Entry 50: DMSO, vapour stress): solid | XRPD ([1]; Entry 50: DMSO, vapour stress): Amorphous | Results ([1]; Entry 51: EtOAc, vapour stress): solid | XRPD ([1]; Entry 51: EtOAc, vapour stress): Form I | Results ([1]; Entry 52: IPA, vapour stress): solid | XRPD ([1]; Entry 52: IPA, vapour stress): Form I | Results ([1]; Entry 53: water, vapour stress): solid | XRPD ([1]; Entry 53: water, vapour stress): Form I | Results ([1]; Entry 54: MeOH, vapour stress): solid | XRPD ([1]; Entry 54: MeOH, vapour stress): Form I | Results ([1]; Entry 55: EtOH, vapour stress): solid | XRPD ([1]; Entry 55: EtOH, vapour stress): Form I | Results [1, 39]: solid | XRPD [1, 39]: Amorphous | Results ([1]; Entry 57: THF/water (82:18% v/v), vapour stress): solution | Results [1, 40]: solid | XRPD [1, 40]: Form I | Results [1, 41]: solid | XRPD [1, 41]: Form I | Results [1, 42]: solid | XRPD [1, 42]: Form I | Results [1, 43]: solid | XRPD [1, 43]: Form I | Results [1, 44]: solid | XRPD [1, 44]: Form I | Results ([1]; Entry 63: water, slow cool): solid | XRPD ([1]; Entry 63: water, slow cool): Form III | Results [1, 45]: solid | XRPD [1, 45]: Form I | Results [1, 46]: solid | XRPD [1, 46]: Form I | Results [1, 47]: solid | XRPD [1, 47]: Form I | Results [1, 48]: solid | XRPD [1, 48]: Form I | Results ([1]; Entry 68: DMSO, anti-solvent THF, crash precipitation): no solid | Results [1, 49]: solid | XRPD [1, 49]: Amorphous | Results [1, 50]: solid | XRPD [1, 50]: Form I | Results [1, 51]: solid | XRPD [1, 51]: Form I | Results [1, 52]: solid | XRPD [1, 52]: Form I | solubility compared to EYP001 free acid, Benethamine, Zinc, Benzathine and Ethylene diamine salts ([2]; 37° C.): much higher solubility | Soluble fraction ([2]; after 0.5 h): 0.010 mg/mL of EYP001 | Soluble fraction ([2]; after 1 h): 0.006 mg/mL of EYP001 | Mean AUC0-24 ([3]; male rats, aqueous formulation): 42500 ng·h/mL | Mean Cmax ([3]; male rats, aqueous formulation): 7870 ng/mL | % increase/EYP001 (AUC0-24) [3, 53]: +47% | % increase/EYP001 (Cmax) [3, 53]: +41% | exposure and C max compared to EYP001 free acid ([3]; rat): superiority
